Data as given in patent publication US20250161236A1, “THYMOQUINONE AND BLACK SEED COMPOSITIONS FOR TREATING NEUROENDOCRINE CANCER IN COMBINATION WITH IMMUNOTHERAPY” (Novatek Pharmaceuticals, Inc., priority 2023, published 2025).

What was measured:
breast cancer cells = conditions: cited from earlier work
BON-1 cells [1] = experiment: Annexin V FITC apoptosis analysis; type: cell-based, human; conditions: 3 uM or 6 uM TQ, 72 h
Description: (§1) About 30,000 BON-1 cells were grown in triplicate in 6 well plates overnight. The next day cells were exposed to 3 uM or 6 uM TQ (or control) for 72 h followed by Annexin V FITC apoptosis analysis. See, e.g., Demchenko 2012, Exp. Oncol. 34, 263-268. In addition, BON-1 cells grown and treated under similar experimental conditions were evaluated by Western blotting for the presence of cleaved PARP-a marker of apoptosis. See, e.g., Chaitanya et al. 2010, Cell Comm. Signal. 8, 31.

[2] = tested on: pancreatic ductal adenocarcinoma tumor models; experiment: TQ inhibitory action in pancreatic ductal adenocarcinoma tumor models; type: cell-based
QGP-1 cells = experiment: Cell viability (MTT) assay, QGP-1 cells; type: cell-based, human; conditions: 72 hrs
Description: (§2) TQ activity was evaluated in two human pancreatic neuroendocrine tumor (pNEN) cell lines: (1) BON-1 cells, established from a lymph node metastasis of a pNET (Evers et al. 1991, Gastroenterology. 101, 303-311); and (2) QGP-1 cells, established from primary somatostatin producing pNET (Kaku et al. 1980, Gan. 71, 596-601). […] See Vandamme et al. 2015, J. Mol. Endocrinol. 54, 137-147.
(§3) About 5000 Bon-1 or 5000 QGP-1 cells were grown in 96-well plates overnight. On the following day, the cells were exposed to the indicated concentrations of TQ for 72 hrs. At the end of the treatment period, a standard MTT assay was performed to measure cell proliferation and conversely, in the presence of TQ, the reduction in cell viability The values represent 6 replicates per dose from three independent experiments.

Bon-1 (or QGP-1) cells = experiment: Colony formation assay; type: cell-based, human; conditions: 2.5 uM or 12.5 uM TQ 72 hrs, then 12 days drug free; p<0.01
Description: About 500 Bon-1 (or QGP-1) cells were seeded in 6-well plates in triplicate and allowed to attach overnight. On the following day, cells were treated with 2.5 uM or 12.5 uM TQ (or control) for 72 hrs. After treatment, cells were replenished with drug free media for 12 days and subjected to 0.5% crystal violet staining. Bar diagrams (FIG. 1B) show the number of colonies at the indicated TQ concentration.

[3] = tested on: PARP cleavage in BON-1 cells; experiment: Western blotting for cleaved PARP; type: cell-based, human; conditions: 3 uM or 6 uM TQ, 72 h
Description: as §1

BON-1 cells [4] = experiment: Cell viability (MTT) assay, BON-1 cells; type: cell-based, human; conditions: 72 hrs
Description: as §2, §3

[5] = tested on: patients with refractory poorly differentiated NEC; conditions: cited from earlier work
[6] = tested on: patients with refractory high grade (G3) NENs; conditions: cited from earlier work
refractory NEC patients = conditions: high-grade NEC group of 21 patients; cited from earlier work

Which “inhibitory effects against breast cancer cells” value (breast cancer cells) does the source give for `CCCCCCCCCOc1c(CCCC(=O)O)cc(-c2ccc(C(=O)O)cc2)cc1CCCC(=O)O` [CNBDA] here?
The value was “significant inhibitory effects”.

With `CC1=CC(=O)C(C(C)C)=CC1=O` [TQ, Thymoquinone] as the molecule, how does the “apoptosis (Annexin V-FITC staining, flow cytometry)” value (BON-1 cells [1]) read?
The value was “induced significant apoptosis”.

What about the IC50 [2] of the same molecule?
Its IC50 is “high uM range”.

What about the “IC50 (cell viability)” value (QGP-1 cells) of the same molecule?
Its value is “low uM range”.

What about the “long term growth in colony formation assay” value (Bon-1 (or QGP-1) cells) of the same molecule?
Its value is “suppressed long term growth”.

What about the “PARP cleavage product (western blot)” value [3] of the same molecule?
The value was “dose dependent accumulation of the PARP cleavage product”.

And the “IC50 (cell viability)” value (BON-1 cells [4])?
The value was “low uM range”.

With nivolumab: anti-PD-1 antibody as the molecule, how does the ORR ([5]; at 8 weeks) read?
Its ORR is 7.2%.

And the OS [5]?
The OS was 7.2 months.

And the PFS [5]?
The PFS was 1.8 months.

Which “objective response rate (ORR)” value [6] does the source give for pembrolizumab: anti-PD1 antibody here?
The value was 5%.

B1: spartalizumab: single agent ICPI in a phase II study in refractory NEC (antibody, chains of the INN, looked up, V domains shown)
VH: EVQLVQSGAEVKKPGESLRISCKGSGYTFTTYWMHWVRQATGQGLEWMGNIYPGTGGSNFDEKFKNRVTITADKSTSTAYMELSSLRSEDTAVYYCTRWTTGTGAYWGQGTTVTVSS
VL: EIVLTQSPATLSLSPGERATLSCKSSQSLLDSGNQKNFLTWYQQKPGQAPRLLIYWASTRESGVPSRFSGSGSGTDFTFTISSLEAEDAATYYCQNDYSYPYTFGQGTKVEIK
With B1 as the molecule, how does the ORR (refractory NEC patients) read?
Its ORR is 4.8%.

What about the OS (refractory NEC patients) of the same molecule?
Its OS is 6.8 months.

What about the PFS (refractory NEC patients) of the same molecule?
The PFS was 1.8 months.
